Results published in patent US9193951B2, “Differentiation method for production of glial cell populations” (Case Western Reserve University, priority 2010, dated 2015).

Columns and labels:
Type in all cases: cell-based, mice
EpiSC-derived OPCs [1] = experiment: Modulation of OPC differentiation by extrinsic factors in T3 differentiation medium
Method: (§1) For differentiation of OPCs into oligodendrocytes, cells were plated at 2.2×10^4 cells cm^−2 and induced with neural base medium supplemented with 0.4 ng ml^−1 T3 (Sigma-Aldrich, St. Louis, Mo.), 200 ng ml^−1 SHH, 100 ng ml^−1 noggin, 10 μM dibutyryl cyclic-AMP sodium salt, 100 ng ml^−1 IGF-1 and 10 ng ml^−1 NT3. Attempts to modulate the outcome of this differentiation paradigm included treatments with Jag1 (R&D Systems, Minneapolis, Minn.), CHIR99021 (Stemgent, San Diego, Calif.), LIF (Millipore, Billerica, Mass.) and/or BMP4 (R&D Systems, Minneapolis, Minn.).
Next, the ability of extrinsic factors to modulate the differentiation of Epi-SC-derived OPCs was explored. […] As a simple proof-of-principle for using the system to screen for compounds, EpiSC-derived OPCs were exposed to three different treatment regimens involving modulation of signaling pathways (Notch, Wnt-β-catenin and BMP) previously implicated in oligodendrocyte development or differentiation. […] Using a similar protocol, the role of GSK3β, a negative regulator of Wnt-β-catenin signaling, was tested by treating EpiSC-derived OPCs with the GSK3β inhibitor CHIR99021.

EpiSC-derived OPCs [2] = experiment: Differentiation of EpiSC-derived OPCs into oligodendrocytes; conditions: day 2 of differentiation, absence of FGF2 and PDGF-AA, n>480 cells
Method: as §1
Live-cell staining was used for the cell-surface marker O4. Live cells were blocked with 10% normal goat serum and treated with O4 antibody for 20 min at 37° C. Cells were gently rinsed three times with warm neural base medium and fixed in 4% paraformaldehyde. […]
To determine the differentiation capacity of the EpiSC-derived OPCs, the EpiSc-derived OPCs were treated with thyroid hormone (T3), which is known to be important both in vitro and in vivo in regulating the transition of OPCs into oligodendrocytes, in the absence of both FGF2 and PDGF-AA. […] By day 4, the overwhelming majority of EpiSC-derived OPCs had become oligodendrocytes, though cell death and rare proliferation events made exact quantification challenging without large-scale time-lapse lineage analysis. […]

EpiSC-derived OPCs [3] = experiment: Respecification of EpiSC-derived OPCs into astrocytes; conditions: combined treatment with BMP4 and LIF; majority of cells
Method: as §1
The final treatment involved exposure of EpiSC-derived OPCs to signaling cascades known to respecify OPCs in vitro into an alternate glial fate, astrocytes.

[4] = test system: EpiSC-derived patterned neuroectoderm; experiment: Region-specific patterning of EpiSC-derived neuroectoderm; conditions: Day-4 neuroectoderm treated 1 day with retinoic acid and SHH in continued presence of noggin (combined)
Method: On day 4, cultures were fed with neural base medium supplemented with 100 ng ml^−1 noggin, 10 μM retinoic acid (Sigma-Aldrich, St. Louis, Mo.; maintained as a 20 mM stock solution in DMSO) and 200 ng ml^−1 SHH (R&D Systems; C24II). To test whether the induced patterned neuroectoderm behaved as un-induced neuroectoderm behaves, the induced EpiSC-derived patterned neuroectoderm were patterned in a region-specific manner. […] Day-4 EpiSC-derived patterned neuroectoderm was treated for 1 day with specific concentrations of retinoic acid and SHH in the continued presence of noggin to pattern them in a region-specific way.

Q: Cc1c[nH]c(-c2cnc(NCCNc3ccc(C#N)cn3)nc2-c2ccc(Cl)cc2Cl)n1 [CHIR99021] was tested. Which “expression of mature oligodendrocyte markers” value (EpiSC-derived OPCs [1]; FIG. 5, treatment of OPCs) did it give?
A: Its value is “suppression”.

Q: What about the “oligodendrocyte differentiation (progression of Olig2+ OPCs to O4+ oligodendrocytes)” value (EpiSC-derived OPCs [1]; T3 differentiation medium, FIG. 5) of the same molecule?
A: The value was “concentration-dependent inhibition”.

Q: For N[C@@H](Cc1cc(I)c(Oc2ccc(O)c(I)c2)c(I)c1)C(=O)O [T3, triiodothyronine], which “cells strongly O4+ with multiprocessed morphology” value (EpiSC-derived OPCs [2]) is on record?
A: The value was “greater than 64%”.

Q: Which “rate or number of O4+ oligodendrocytes” value (EpiSC-derived OPCs [1]; 2 days, T3 differentiation medium) does the source give for “Jagged1: the Notch ligand Jagged1 (Jag1)” here?
A: The value was “did not impact”.

Q: “LIF: leukemia inhibitory factor, activator of JAK/STAT pathways” was tested. Which “respecification into astrocytes (morphological and gene expression changes)” value (EpiSC-derived OPCs [3]) did it give?
A: Its value is “upregulation of GFAP”.

B1: noggin: a BMP antagonist; secreted polypeptide encoded by the NOG gene (protein, UniProt Q13253 28-232, looked up)
Noggin: QHYLHIRPAPSDNLPLVDLIEHPDPIFDPKEKDLNETLLRSLLGGHYDPGFMATSPPEDRPGGGGGAAGGAEDLAELDQLLRQRPSGAMPSEIKGLEFSEGLAQGKKQRLSKKLRRKLQMWLWSQTFCPVLYAWNDLGSRFWPRYVKVGSCFSKRSCSVPEGMVCKPSKSVHLTVLRWRCQRRGGQRCGWIPIQYPIISECKCSC
Q: B1 was tested. Which “expression of OPC-relevant transcription factors Olig2 and Nkx2.2” value [4] did it give?
A: Its value is “upregulation”.

B2: BMP4: bone morphogenetic protein 4, ligand of the TGF beta superfamily (protein, UniProt P12644 293-408, looked up)
Bone morphogenetic protein 4: SPKHHSQRARKKNKNCRRHSLYVDFSDVGWNDWIVAPPGYQAFYCHGDCPFPLADHLNSTNHAIVQTLVNSVNSSIPKACCVPTELSAISMLYLDEYDKVVLKNYQEMVVEGCGCR
Q: With B2 as the molecule, how does the “respecification into astrocytes (morphological and gene expression changes)” value (EpiSC-derived OPCs [3]) read?
A: The value was “upregulation of GFAP”.
